Test results as given in US20070037837A1, “Quinazoline derivatives” (priority 2003, published 2007).
pIC50: −log10 of the molar value.

Columns and labels:
EGFR tyrosine kinase = target: T1, EGFR tyrosine kinase (Homo sapiens, UniProt P00533); assay: Protein tyrosine kinase phosphorylation assay, Test (a), EGFR; assay type: biochemical; details: recombinant intracellular fragment, ATP at Km; read-out: IC50 Test (a): Inhibition of EGFR tyrosine kinase protein phosphorylation
T1 construct: Recombinant intracellular fragments of EGFR, erbB2 and erbB4; made in house; host or cells: baculovirus/Sf21 insect cells (cleared lysate used)
T1 sequence (P00533 669-1210 limits assumed): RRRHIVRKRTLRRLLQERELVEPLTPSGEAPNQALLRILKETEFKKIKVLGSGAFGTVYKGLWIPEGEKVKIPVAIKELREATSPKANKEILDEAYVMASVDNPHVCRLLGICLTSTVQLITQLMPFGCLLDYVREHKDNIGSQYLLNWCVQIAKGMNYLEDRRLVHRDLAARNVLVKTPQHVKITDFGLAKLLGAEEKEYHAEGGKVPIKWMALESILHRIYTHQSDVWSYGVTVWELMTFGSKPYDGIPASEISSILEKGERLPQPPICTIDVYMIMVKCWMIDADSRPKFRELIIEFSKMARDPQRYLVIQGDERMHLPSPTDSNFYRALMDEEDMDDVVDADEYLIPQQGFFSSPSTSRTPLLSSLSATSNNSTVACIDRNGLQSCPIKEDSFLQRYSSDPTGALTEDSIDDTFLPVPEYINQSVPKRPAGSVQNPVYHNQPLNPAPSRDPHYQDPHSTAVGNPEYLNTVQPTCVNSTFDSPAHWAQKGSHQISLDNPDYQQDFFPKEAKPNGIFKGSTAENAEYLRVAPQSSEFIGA
Procedure: (§1) This test measures the ability of a test compound to inhibit the phosphorylation of a tyrosine containing polypeptide substrate by EGFR and erbB2 tyrosine kinase enzyme.
(§2) Recombinant intracellular fragments of EGFR, erbB2 and erbB4 (accession numbers X00588, X03363 and L07868 respectively) were cloned and expressed in the baculovirus/Sf21 system. Lysates were prepared from these cells by treatment with ice-cold lysis buffer (20 mM N-2-hydroxyethylpiperizine-N′-2-ethanesulfonic acid (HEPES) pH 7.5, 150 mM NaCl, 10% glycerol, 1% Triton X-100, 1.5 mM MgCl2, 1 mM ethylene glycol-bis(β-aminoethyl ether) N′,N′,N′,N′-tetraacetic acid (EGTA), plus protease inhibitors and then cleared by centrifugation.
Constitutive kinase activity of the recombinant protein was determined by its ability to phosphorylate a synthetic peptide (made up of a random co-polymer of Glutamic Acid, Alanine and Tyrosine in the ratio of 6:3:1). Specifically, Maxisorb™ 96-well immunoplates were coated with synthetic peptide (0.2 μg of peptide in a 100 μl phosphate buffered saline (PBS) solution and incubated at 4° C. overnight). Plates were washed in PBS-T (phosphate buffered saline with 0.5% Tween 20) then in 50 mM HEPES pH 7.4 at room temperature to remove any excess unbound synthetic peptide. […]
The immobilised phospho-peptide product of the reaction was detected by immunological methods. […] After further washing, HRP activity in each well of the plate was measured colorimetrically using 22′-Azino-di-[3-ethylbenzthiazoline sulfonate (6)] diammonium salt crystals (ABTS™ from Roche) as a substrate.
(§3) Quantification of colour development and thus enzyme activity was achieved by the measurement of absorbance at 405 nm on a Molecular Devices ThermoMax microplate reader. Kinase inhibition for a given compound was expressed as an IC50 value. […] The range of phosphorylation was calculated from the positive (vehicle plus ATP) and negative (vehicle minus ATP) control values.

erbB2 tyrosine kinase = target: T2, erbB2 tyrosine kinase (Homo sapiens, UniProt P04626); assay: Protein tyrosine kinase phosphorylation assay, Test (a), erbB2; assay type: biochemical; details: recombinant intracellular fragment, ATP at Km; read-out: IC50 Test (a): Inhibition of erbB2 tyrosine kinase protein phosphorylation
T2 construct: Recombinant intracellular fragments of EGFR, erbB2 and erbB4; made in house; host or cells: baculovirus/Sf21 insect cells (cleared lysate used)
T2 sequence (P04626 676-1255 limits assumed): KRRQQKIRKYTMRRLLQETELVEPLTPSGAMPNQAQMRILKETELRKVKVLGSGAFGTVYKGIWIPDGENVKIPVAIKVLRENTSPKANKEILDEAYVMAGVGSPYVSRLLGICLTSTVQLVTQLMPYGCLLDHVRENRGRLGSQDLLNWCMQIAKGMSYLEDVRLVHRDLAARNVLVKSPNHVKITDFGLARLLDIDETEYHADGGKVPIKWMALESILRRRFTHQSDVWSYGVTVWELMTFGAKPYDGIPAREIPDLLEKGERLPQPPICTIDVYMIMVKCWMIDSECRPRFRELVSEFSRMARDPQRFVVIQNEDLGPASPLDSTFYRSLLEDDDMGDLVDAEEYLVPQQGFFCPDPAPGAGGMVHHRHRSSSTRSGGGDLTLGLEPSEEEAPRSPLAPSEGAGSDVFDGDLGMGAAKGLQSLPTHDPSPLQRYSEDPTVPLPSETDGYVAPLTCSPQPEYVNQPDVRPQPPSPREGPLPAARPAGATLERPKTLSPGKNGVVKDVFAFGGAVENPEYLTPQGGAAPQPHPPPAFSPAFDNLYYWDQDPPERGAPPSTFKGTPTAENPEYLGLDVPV
Procedure: as §1, §2
Constitutive kinase activity of the recombinant protein was determined by its ability to phosphorylate a synthetic peptide (made up of a random co-polymer of Glutamic Acid, Alanine and Tyrosine in the ratio of 6:3:1). Specifically, Maxisorb™ 96-well immunoplates were coated with synthetic peptide (0.2 μg of peptide in a 100 μl phosphate buffered saline (PBS) solution and incubated at 4° C. overnight). Plates were washed in PBS-T (phosphate buffered saline with 0.5% Tween 20) then in 50 mM HEPES pH 7.4 at room temperature to remove any excess unbound synthetic peptide. EGFR, ErbB2 or ErbB4 tyrosine kinase activity was assessed by incubation in peptide coated plates for 20 minutes at 22° C. in 100 mM HEPES pH 7.4, adenosine trisphosphate (ATP) at Km concentration for the respective enzyme, 10 mM MnCl2, 0.1 mM Na3VO4, 0.2 mM DL-dithiothreitol (DTT), 0.1% Triton X-100 with test compound in DMSO (final concentration of 2.5%). Reactions were terminated by the removal of the liquid components of the assay followed by washing of the plates with PBS-T.
The immobilised phospho-peptide product of the reaction was detected by immunological methods. Firstly, plates were incubated for 90 minutes at room temperature with anti-phosphotyrosine primary antibodies that were raised in the mouse (4G10 from Upstate Biotechnology). Following extensive washing, plates were treated with Horseradish Peroxidase (HRP) conjugated sheep anti-mouse secondary antibody (NXA931 from Amersham) for 60 minutes at room temperature. After further washing, HRP activity in each well of the plate was measured colorimetrically using 22′-Azino-di-[3-ethylbenzthiazoline sulfonate (6)] diammonium salt crystals (ABTS™ from Roche) as a substrate.
as §3

KB cells = assay: EGFR driven KB cell proliferation assay, Test (b); assay type: cell-based; details: Homo sapiens, 96 h, EGF 1 ng/ml, 4 days, MTT
Procedure: This assay measures the ability of a test compound to inhibit the proliferation of KB cells (human naso-pharangeal carcinoma obtained from the American Type Culture Collection (ATCC).
KB cells (human naso-pharangeal carcinoma obtained from the ATCC were cultured in Dulbecco's modified Eagle's medium (DMEM) containing 10% foetal calf serum, 2 mM glutamine and non-essential amino acids at 37° C. in a 7.5% CO2 air incubator. Cells were harvested from the stock flasks using Trypsin/ethylaminediaminetetraacetic acid (EDTA). Cell density was measured using a haemocytometer and viability was calculated using trypan blue solution before being seeded at a density of 1.25×10^3 cells per well of a 96 well plate in DMEM containing 2.5% charcoal stripped serum, 1 mM glutamine and non-essential amino acids at 37° C. in 7.5% CO2 and allowed to settle for 4 hours.
Following adhesion to the plate, the cells are treated with or without EGF (final concentration of 1 ng/ml) and with or without compound at a range of concentrations in dimethylsulfoxide (DMSO) (0.1% final) before incubation for 4 days. Following the incubation period, cell numbers were determined by addition of 50 μl of 3-(4,5-Dimethylthiazol-2-yl)-2,5-diphenyltetrazolium bromide (MTT) (stock 5 mg/ml) for 2 hours. MTT solution was then tipped off, the plate gently tapped dry and the cells dissolved upon the addition of 100 μl of DMSO.
Absorbance of the solubilised cells was read at 540 nm using a Molecular Devices ThermoMax microplate reader. Inhibition of proliferation was expressed as an IC50 value. This was determined by calculation of the concentration of compound that was required to give 50% inhibition of proliferation. The range of proliferation was calculated from the positive (vehicle plus EGF) and negative (vehicle minus EGF) control values.

erbB2 = target: T3, erbB2 (Homo sapiens, UniProt P04626); assay: Clone 24 phospho-erbB2 cell assay, Test (e); assay type: cell-based; details: MCF7 derived Clone 24 cells, 4 hrs; read-out: IC50 Test (e): Inhibition of erbB2 tyrosine kinase protein phosphorylation
T3 construct: to give a cell line that overexpresses full length wild type erbB2 protein; expressed in transfected cells; host or cells: MCF7 (breast carcinoma) derived 'Clone 24' cells
T3 sequence (P04626 23-1255): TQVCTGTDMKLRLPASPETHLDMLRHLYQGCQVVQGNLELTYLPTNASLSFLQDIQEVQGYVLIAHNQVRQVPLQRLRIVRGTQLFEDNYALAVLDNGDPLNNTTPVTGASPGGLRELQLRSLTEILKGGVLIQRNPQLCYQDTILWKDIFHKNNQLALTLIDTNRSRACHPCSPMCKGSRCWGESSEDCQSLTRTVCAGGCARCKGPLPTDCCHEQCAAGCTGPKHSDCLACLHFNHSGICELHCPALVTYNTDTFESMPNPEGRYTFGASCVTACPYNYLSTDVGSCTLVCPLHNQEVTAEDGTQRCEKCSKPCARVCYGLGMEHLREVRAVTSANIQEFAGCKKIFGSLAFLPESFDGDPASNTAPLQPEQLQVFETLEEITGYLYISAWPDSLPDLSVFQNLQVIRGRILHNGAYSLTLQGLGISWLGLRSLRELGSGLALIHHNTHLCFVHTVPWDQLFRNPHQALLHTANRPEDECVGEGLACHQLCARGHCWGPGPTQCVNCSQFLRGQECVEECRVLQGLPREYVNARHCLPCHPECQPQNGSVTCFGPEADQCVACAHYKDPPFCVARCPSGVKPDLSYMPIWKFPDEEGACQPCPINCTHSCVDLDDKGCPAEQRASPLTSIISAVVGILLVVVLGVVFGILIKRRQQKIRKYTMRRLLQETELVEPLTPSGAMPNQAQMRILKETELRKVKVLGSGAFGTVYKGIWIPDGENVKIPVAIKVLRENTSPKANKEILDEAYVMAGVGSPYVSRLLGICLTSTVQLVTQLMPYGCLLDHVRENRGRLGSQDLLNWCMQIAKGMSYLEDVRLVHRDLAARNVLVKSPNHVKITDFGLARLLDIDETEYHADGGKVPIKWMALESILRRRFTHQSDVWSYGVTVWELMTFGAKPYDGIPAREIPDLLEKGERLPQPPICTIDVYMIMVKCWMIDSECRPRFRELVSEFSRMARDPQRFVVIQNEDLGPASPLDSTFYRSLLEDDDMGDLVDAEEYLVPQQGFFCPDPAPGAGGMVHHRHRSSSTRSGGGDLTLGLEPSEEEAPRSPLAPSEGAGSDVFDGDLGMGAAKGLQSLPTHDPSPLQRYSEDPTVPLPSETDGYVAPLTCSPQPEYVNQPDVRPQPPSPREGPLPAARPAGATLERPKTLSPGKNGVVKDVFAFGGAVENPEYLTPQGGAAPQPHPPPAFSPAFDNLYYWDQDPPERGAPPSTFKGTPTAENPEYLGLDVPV
Procedure: This immunofluorescence end point assay measures the ability of a test compound to inhibit the phosphorylation of erbB2 in a MCF7 (breast carcinoma) derived cell line which was generated by transfecting MCF7 cells with the full length erbB2 gene using standard methods to give a cell line that overexpresses full length wild type erbB2 protein (hereinafter ‘Clone 24’ cells).
Clone 24 cells were cultured in Growth Medium (phenol red free Dulbecco's modified Eagle's medium (DMEM) containing 10% foetal bovine serum, 2 mM glutamine and 1.2 mg/ml G418) in a 7.5% CO2 air incubator at 37° C. Cells were harvested from T75 stock flasks by washing once in PBS (phosphate buffered saline, pH 7.4, Gibco No. 10010-015) and harvested using 2 mls of Trypsin (1.25 mg/ml)/ethylaminediaminetetraacetic acid (EDTA) (0.8 mg/ml) solution. The cells were resuspended in Growth Medium. Cell density was measured using a haemocytometer and viability was calculated using Trypan Blue solution before being further diluted in Growth Medium and seeded at a density of 1×10^4 cells per well (in 100 ul) into clear bottomed 96 well plates (Packard, No. 6005182).
3 days later, Growth Medium was removed from the wells and replaced with 100 ul Assay Medium (phenol red free DMEM, 2 mM glutamine, 1.2 mg/ml G418) either with or without erbB inhibitor compound. Plates were returned to the incubator for 4 hrs and then 20 μl of 20% formaldehyde solution in PBS was added to each well and the plate was left at room temperature for 30 minutes. This fixative solution was removed with a multichannel pipette, 100 μl of PBS was added to each well and then removed with a multichannel pipette and then 50 μl PBS was added to each well. Plates were then sealed and stored for up to 2 weeks at 4° C.
Immunostaining was performed at room temperature. Wells were washed once with 200 μl PBS/Tween 20 (made by adding 1 sachet of PBS/Tween dry powder (Sigma, No. P3563) to 1 L of double distilled H2O) using a plate washer then 200 μl Blocking Solution (5% Marvel dried skimmed milk (Nestle) in PBS/Tween 20) was added and incubated for 10 minutes. Blocking Solution was removed using a plate washer and 200 μl of 0.5% Triton X-100/PBS was added to permeabalise the cells. After 10 minutes, the plate was washed with 200 μl PBS/Tween 20 and then 200 μl Blocking Solution was added once again and incubated for 15 minutes. […]
The Fluorescence signal is each well was measured using an Acumen Explorer Instrument (Acumen Bioscience Ltd.), a plate reader that can be used to rapidly quantitate features of images generated by laser-scanning. […]

pIC50 (EGFR tyrosine kinase)	pIC50 (erbB2 tyrosine kinase)	pIC50 (KB cells)	pIC50 (erbB2)	Structure (SMILES)
9.00	7.42	7.46	8.05	COC(=O)N1CCC(Oc2cc3c(Nc4cccc(Cl)c4F)ncnc3cc2OC)CC1 [Example 1, 4-(3-Chloro-2-fluoroanilino)-7-methoxy-6-{[1-(methoxycarbonyl)piperidin-4-yl]oxy}quinazoline]
8.40	8.00	8.05	7.44	COc1cc2ncnc(Nc3cccc(Cl)c3F)c2cc1OC1CCN(C(=O)OCCN2CCCC2)CC1 [Example 2, 4-(3-Chloro-2-fluoroanilino)-7-methoxy-6-{[1-{2-(pyrrolidin-1-yl)ethoxycarbonyl}piperidin-4-yl]oxy}quinazoline]
8.70	8.70	7.82	7.54	COc1cc2ncnc(Nc3ccc(F)c(Cl)c3F)c2cc1OC1CCN(C(=O)OCCN2CCCC2)CC1 [Example 4, 4-(3-Chloro-2,4-difluoroanilino)-7-methoxy-6-{[1-{2-(pyrrolidin-1-yl)ethoxycarbonyl}piperidin-4-yl]oxy}quinazoline]
–	8.70	8.00	7.39	COc1cc2ncnc(Nc3cccc(Cl)c3F)c2cc1OC1CCN(C(=O)OCCN2CCCCC2)CC1 [Example 6, 4-(3-Chloro-2-fluoroanilino)-7-methoxy-6-{[1-{2-(piperidin-1-yl)ethoxycarbonyl}piperidin-4-yl]oxy}quinazoline]
